Test results as given in patent publication US20260085077A1, “HETEROCYCLIC DERIVATIVES AS JANUS KINASE INHIBITORS” (CHIESI FARMACEUTICI S.P.A., priority 2022, published 2026).

The compounds below were run on IL-13 induced pSTAT6 in BEAS-2B human cell line (assay: Inhibition of IL-13 induced pSTAT6 in BEAS). Conditions: IL-13 induced pSTAT6, BEAS-2B cells, ELISA.
Type: cell-based
How it was run: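 BEAS-2B cells, cultured 48 h, were pretreated with compounds 30 min, then stimulated with IL-13 for 30 min. Phospho-STAT6 (Tyr641) in lysates quantified by sandwich ELISA; 11-point 5-fold series from 10 μM […], duplicate, IC50 fitted with QC (Z′≥0.35, Hill slope 0.5-5, S:B>2).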

| Structure (SMILES) | IC50 [nM] |
| --- | --- |
| COc1cc2c(cc1-n1nc(C(=O)NC[C@@H]3CN(C)CCO3)c3cnc(-c4cnn5cccnc45)cc31)OCCN2 [Example 45, (R)-1-(6-methoxy-3,4-dihydro-2H-benzo[b][1,4]oxazin-7-yl)-N-((4-methylmorpholin-2-yl)methyl)-6-(pyrazolo[1,5-a]pyrimidin-3-yl)-1H-pyrazolo[4,3-c]pyridine-3-carboxamide] | 5.01 to 50.1 |
| COc1cc2c(cc1-n1nc(C(=O)NCCN3CC(=O)OC(C)C3)c3cnc(-c4cnn5cccnc45)cc31)OCCN2 (centres unmarked) [Example 83, 1-(6-methoxy-3,4-dihydro-2H-benzo[b][1,4]oxazin-7-yl)-N-(2-(2-methyl-6-oxomorpholino)ethyl)-6-(pyrazolo[1,5-a]pyrimidin-3-yl)-1H-pyrazolo[4,3-c]pyridine-3-carboxamide] | 50.1 to 501 |
| COc1cc2c(cc1-n1nc(C)c3cnc(-c4cnn5cccnc45)cc31)C1(CC1)C(=O)N2 [Example 71, 6′-methoxy-5′-(3-methyl-6-(pyrazolo[1,5-a]pyrimidin-3-yl)-1H-pyrazolo[4,3-c]pyridin-1-yl)spiro[cyclopropane-1,3′-indolin]-2′-one] | 5.01 to 50.1 |
| COc1cc2c(cc1-n1nc(NC(=O)NCCCN3CCOCC3)c3cnc(-c4cnn5cccnc45)cc31)OCCN2 [Example 70, 1-(1-(6-methoxy-3,4-dihydro-2H-benzo[b][1,4]oxazin-7-yl)-6-(pyrazolo[1,5-a]pyrimidin-3-yl)-1H-pyrazolo[4,3-c]pyridin-3-yl)-3-(3-morpholinopropyl)urea] | 5.01 to 50.1 |
| COc1cc2c(cc1-n1nc(C)c3cnc(-c4cnn5cccnc45)cc31)OC(F)(F)C(=O)N2 [Example 11, 2,2-difluoro-6-methoxy-7-(3-methyl-6-(pyrazolo[1,5-a]pyrimidin-3-yl)-1H-pyrazolo[4,3-c]pyridin-1-yl)-2H-benzo[b][1,4]oxazin-3(4H)-one] | 5.01 to 50.1 |
| COc1cc2c(cc1-n1nc(C(=O)NCCN3CCC4(COC4)C3)c3cnc(-c4cnn5cccnc45)cc31)OCCN2 [Example 82, N-(2-(2-oxa-6-azaspiro[3.4]octan-6-yl)ethyl)-1-(6-methoxy-3,4-dihydro-2H-benzo[b][1,4]oxazin-7-yl)-6-(pyrazolo[1,5-a]pyrimidin-3-yl)-1H-pyrazolo[4,3-c]pyridine-3-carboxamide] | 5.01 to 50.1 |
| COc1cc2c(cc1-n1nc(C)c3cnc(-c4cnn5cccnc45)cc31)C(=O)CCN2 [Example 5, 7-methoxy-6-(3-methyl-6-(pyrazolo[1,5-a]pyrimidin-3-yl)-1H-pyrazolo[4,3-c]pyridin-1-yl)-2,3-dihydroquinolin-4(1H)-one] | 5.01 to 50.1 |
| COc1cc2c(cc1-n1nc(C(=O)NCCCN(C)C)c3cnc(-c4cnn5cccnc45)cc31)SCC(=O)N2 [Example 23, N-(3-(dimethylamino)propyl)-1-(6-methoxy-3-oxo-3,4-dihydro-2H-benzo[b][1,4]thiazin-7-yl)-6-(pyrazolo[1,5-a]pyrimidin-3-yl)-1H-pyrazolo[4,3-c]pyridine-3-carboxamide] | 5.01 to 50.1 |
| COc1cc2c(cc1-n1nc(NCCN(C)C)c3cnc(-c4cnn5cccnc45)cc31)OCCN2 [Example 54, N1-(1-(6-methoxy-3,4-dihydro-2H-benzo[b][1,4]oxazin-7-yl)-6-(pyrazolo[1,5-a]pyrimidin-3-yl)-1H-pyrazolo[4,3-c]pyridin-3-yl)-N2,N2-dimethylethane-1,2-diamine] | 5.01 to 50.1 |
| COc1cc2c(cc1-n1nc(NCCN(C)C)c3cnc(Nc4ncc[nH]c4=O)cc31)OCCN2 [Example 74, 3-((3-((2-(dimethylamino)ethyl)amino)-1-(6-methoxy-3,4-dihydro-2H-benzo[b][1,4]oxazin-7-yl)-1H-pyrazolo[4,3-c]pyridin-6-yl)amino)pyrazin-2(1H)-one] | 50.1 to 501 |
| COc1cc2c(cc1-n1nc(NC(=O)N(C)C)c3cnc(-c4cnn5cccnc45)cc31)SCCN2 [Example 36, 3-(1-(6-methoxy-3,4-dihydro-2H-benzo[b][1,4]thiazin-7-yl)-6-(pyrazolo[1,5-a]pyrimidin-3-yl)-1H-pyrazolo[4,3-c]pyridin-3-yl)-1,1-dimethylurea] | < 5.01 |
| COc1cc2c(cc1-n1nc(NC(=O)OCCSC3CCOC3=O)c3cnc(-c4cnn5cccnc45)cc31)CCCN2 (centres unmarked) [Example 86, 2-((2-oxotetrahydrofuran-3-yl)thio)ethyl (1-(7-methoxy-1,2,3,4-tetrahydroquinolin-6-yl)-6-(pyrazolo[1,5-a]pyrimidin-3-yl)-1H-pyrazolo[4,3-c]pyridin-3-yl)carbamate] | 5.01 to 50.1 |
| COc1cc2c(cc1-n1nc(C)c3cnc(-c4cnn5cccnc45)cc31)SCC(=O)N2 [Example 7, 6-methoxy-7-(3-methyl-6-(pyrazolo[1,5-a]pyrimidin-3-yl)-1H-pyrazolo[4,3-c]pyridin-1-yl)-2H-benzo[b][1,4]thiazin-3(4H)-one] | 5.01 to 50.1 |
| COc1cc2c(cc1-n1nc(C(=O)NC[C@@H]3CN(C)CCO3)c3cnc(-c4cnn5cccnc45)cc31)SCCN2 [Example 18, (R)-1-(6-methoxy-3,4-dihydro-2H-benzo[b][1,4]thiazin-7-yl)-N-((4-methylmorpholin-2-yl)methyl)-6-(pyrazolo[1,5-a]pyrimidin-3-yl)-1H-pyrazolo[4,3-c]pyridine-3-carboxamide] | 5.01 to 50.1 |
